Source: article PMC10962654 (Journal of Food and Drug Analysis, 2023)
Where two headings read alike, the source gives them in different places.

Key:
CK-MB = experiment: Plasma CK-MB; format: in vivo, Sprague Dawley rats; details: MI/R rats, Sigmoid-Emax model
α-HBDH = experiment: Plasma α-HBDH; format: in vivo, Sprague Dawley rats; details: MI/R rats, Sigmoid-Emax model
cTn I = experiment: Plasma cTn I; format: in vivo, Sprague Dawley rats; details: MI/R rats, Sigmoid-Emax model
IMA = experiment: Plasma IMA; format: in vivo, Sprague Dawley rats; details: MI/R rats, Sigmoid-Emax model
[1] = MI/R rats, plasma, n = 6

Row | Compound | Emax (maximal effect) of optimal PK/PD equation, ΔcTn I (cTn I; GHI-L ([…], i.v.)) | CL2 ([1]; GHI-H (GHI 10 mL/kg, i.v.)) [mL/min/kg] | K10 ([1]; GHI-H (GHI 10 mL/kg, i.v.)) [h⁻¹] | K12 ([1]; GHI-H (GHI 10 mL/kg, i.v.)) [h⁻¹] | K21 ([1]; GHI-H (GHI 10 mL/kg, i.v.)) [h⁻¹] | Q ([1]; GHI-H (GHI 10 mL/kg, i.v.)) [mL/min/kg] | V1 ([1]; GHI-H (GHI 10 mL/kg, i.v.)) [L/kg] | V2 ([1]; GHI-H (GHI 10 mL/kg, i.v.)) [L/kg] | t1/2α ([1]; GHI-H (GHI 10 mL/kg, i.v.)) [min] | CL1 ([1]; GHI-L (GHI […], i.v.)) [mL/min/kg] | CL2 ([1]; GHI-L (GHI […], i.v.)) [mL/min/kg] | K10 ([1]; GHI-L (GHI […], i.v.)) [h⁻¹] | K12 ([1]; GHI-L (GHI […], i.v.)) [h⁻¹] | K21 ([1]; GHI-L (GHI […], i.v.)) [h⁻¹] | Q ([1]; GHI-L (GHI […], i.v.)) [mL/min/kg] | V1 ([1]; GHI-L (GHI […], i.v.)) [L/kg] | t1/2α ([1]; GHI-L (GHI […], i.v.)) [min] | CL1 ([1]; GHI-M (GHI 5 mL/kg, i.v.)) [mL/min/kg] | CL2 ([1]; GHI-M (GHI 5 mL/kg, i.v.)) [mL/min/kg] | K10 ([1]; GHI-M (GHI 5 mL/kg, i.v.)) [h⁻¹] | further results
1 | hydroxysafflor yellow A | 4.628 | – | – | – | – | – | – | – | – | – | – | – | – | – | – | – | – | – | – | – | Emax (maximal effect) of optimal PK/PD equation, ΔCK-MB (CK-MB; GHI-L ([…], i.v.)): 11.082; Emax (maximal effect) of optimal PK/PD equation, ΔCK-MB (CK-MB; GHI-M (5 mL/kg, i.v.)): 27.2; Emax (maximal effect) of optimal PK/PD equation, Δα-HBDH (α-HBDH; GHI-L ([…], i.v.)): 49.45; Emax (maximal effect) of optimal PK/PD equation, Δα-HBDH (α-HBDH; GHI-M (5 mL/kg, i.v.)): 88.223; Emax (maximal effect) of optimal PK/PD equation, ΔcTn I (cTn I; GHI-M (5 mL/kg, i.v.)): 7.341; Emax (maximal effect) of optimal PK/PD equation, ΔIMA (IMA; GHI-L ([…], i.v.)): 31.473; Emax (maximal effect) of optimal PK/PD equation, ΔIMA (IMA; GHI-M (5 mL/kg, i.v.)): 49.851
2 | O=c1c(O[C@@H]2O[C@H](CO)[C@H](O)[C@H](O)[C@H]2O)c(-c2ccc(O)c(O)c2)oc2cc(O)cc(O)c12 [Hyperoside, hyperoside] | – | 120.9 ± 37.88 | 21.205 ± 16.45 | 26.235 ± 8.526 | 6.031 ± 0.862 | 121 ± 37.85 | 0.309 ± 0.126 | 1.207 ± 0.352 | 0.9 ± 0.24 | 88.93 ± 8.22 | 144.8 ± 10.5 | 11.259 ± 2.48 | 18.242 ± 3.358 | 2.929 ± 0.214 | 144.8 ± 10.5 | 0.493 ± 0.117 | 1.38 ± 0.3 | 76.58 ± 3.37 | 76.22 ± 11.2 | 14.742 ± 5.174 | CL1 ([1]; GHI-H (GHI 10 mL/kg, i.v.)): 81.92 ± 12 mL/min/kg; V2 ([1]; GHI-L (GHI […], i.v.)): 2.979 ± 0.292 L/kg; K12 ([1]; GHI-M (GHI 5 mL/kg, i.v.)): 14.086 ± 2.688 h⁻¹; K21 ([1]; GHI-M (GHI 5 mL/kg, i.v.)): 4.889 ± 0.407 h⁻¹; Q ([1]; GHI-M (GHI 5 mL/kg, i.v.)): 76.2 ± 11.2 mL/min/kg; V1 ([1]; GHI-M (GHI 5 mL/kg, i.v.)): 0.34 ± 0.1 L/kg; V2 ([1]; GHI-M (GHI 5 mL/kg, i.v.)): 0.935 ± 0.119 L/kg; t1/2α ([1]; GHI-M (GHI 5 mL/kg, i.v.)): 1.38 ± 0.3 min
3 | C[C@@H]1O[C@@H](OC[C@H]2O[C@@H](Oc3c(-c4ccc(O)c(O)c4)oc4cc(O)cc(O)c4c3=O)[C@H](O)[C@@H](O)[C@@H]2O)[C@H](O)[C@H](O)[C@H]1O [Rutin, rutin] | 4.632 | 111.9 ± 61.47 | 25.55 ± 19.846 | 42.24 ± 19.866 | 7.333 ± 1.971 | 111.8 ± 61.52 | 0.239 ± 0.209 | 0.855 ± 0.277 | 0.72 ± 0.36 | 63.25 ± 8.27 | 104.4 ± 13.5 | 10.125 ± 0.978 | 16.754 ± 1.998 | 3.748 ± 0.381 | 104.4 ± 13.6 | 0.379 ± 0.071 | 1.44 ± 0.12 | 47.87 ± 4.4 | 83.63 ± 11.1 | 6.448 ± 1.858 | CL1 ([1]; GHI-H (GHI 10 mL/kg, i.v.)): 46.88 ± 7.65 mL/min/kg; K12 ([1]; GHI-M (GHI 5 mL/kg, i.v.)): 11.318 ± 3.536 h⁻¹; K21 ([1]; GHI-M (GHI 5 mL/kg, i.v.)): 4.751 ± 1.024 h⁻¹; Q ([1]; GHI-M (GHI 5 mL/kg, i.v.)): 83.63 ± 11.1 mL/min/kg; V1 ([1]; GHI-M (GHI 5 mL/kg, i.v.)): 0.466 ± 0.88 L/kg; V2 ([1]; GHI-M (GHI 5 mL/kg, i.v.)): 1.075 ± 0.133 L/kg; t1/2α ([1]; GHI-M (GHI 5 mL/kg, i.v.)): 2.1 ± 0.6 min
4 | CC(=O)N[C@@H](CCC(N)=O)C(=O)O [N-acetyl-L-glutamine] | 4.608 | – | – | – | – | – | – | – | – | – | – | – | – | – | – | – | – | – | – | – | Emax (maximal effect) of optimal PK/PD equation, ΔCK-MB (CK-MB; GHI-L ([…], i.v.)): 11.04; Emax (maximal effect) of optimal PK/PD equation, ΔCK-MB (CK-MB; GHI-M (5 mL/kg, i.v.)): 13.089; Emax (maximal effect) of optimal PK/PD equation, Δα-HBDH (α-HBDH; GHI-H (10 mL/kg, i.v.)): 91.925; Emax (maximal effect) of optimal PK/PD equation, Δα-HBDH (α-HBDH; GHI-L ([…], i.v.)): 48.85; Emax (maximal effect) of optimal PK/PD equation, Δα-HBDH (α-HBDH; GHI-M (5 mL/kg, i.v.)): 72.312; AUC(0-t) ([1]; GHI-H (GHI 10 mL/kg, i.v.)): 1048.88 ± 551.764 ng·h/mL; AUC(0-∞) ([1]; GHI-H (GHI 10 mL/kg, i.v.)): 1079.308 ± 551.248 ng·h/mL; t1/2β ([1]; GHI-H (GHI 10 mL/kg, i.v.)): 42.5 ± 4.98 min; AUC(0-t) ([1]; GHI-L (GHI […], i.v.)): 538.219 ± 290.308 ng·h/mL; AUC(0-∞) ([1]; GHI-L (GHI […], i.v.)): 553.382 ± 290.017 ng·h/mL; t1/2β ([1]; GHI-L (GHI […], i.v.)): 48.8 ± 4.68 min; AUC(0-t) ([1]; GHI-M (GHI 5 mL/kg, i.v.)): 1012.749 ± 472.353 ng·h/mL; AUC(0-∞) ([1]; GHI-M (GHI 5 mL/kg, i.v.)): 1060.065 ± 473.211 ng·h/mL; t1/2β ([1]; GHI-M (GHI 5 mL/kg, i.v.)): 27.7 ± 1.38 min; Emax (maximal effect) of optimal PK/PD equation, ΔcTn I (cTn I; GHI-H (10 mL/kg, i.v.)): 10.158; Emax (maximal effect) of optimal PK/PD equation, ΔcTn I (cTn I; GHI-M (5 mL/kg, i.v.)): 6.714; Emax (maximal effect) of optimal PK/PD equation, ΔIMA (IMA; GHI-H (10 mL/kg, i.v.)): 77.916; Emax (maximal effect) of optimal PK/PD equation, ΔIMA (IMA; GHI-L ([…], i.v.)): 31.136; Emax (maximal effect) of optimal PK/PD equation, ΔIMA (IMA; GHI-M (5 mL/kg, i.v.)): 42.733
5 | O=c1c(O[C@@H]2O[C@H](CO)[C@@H](O)[C@H](O)[C@H]2O)c(-c2ccc(O)cc2)oc2cc(O)cc(O)c12 [Kaempferol-3-O-glucoside, kaempferol-3-O-glucoside] | 4.625 | 141.2 ± 10.2 | 9.636 ± 0.934 | 17.927 ± 1.512 | 6.02 ± 0.636 | 141.2 ± 10.2 | 0.475 ± 0.044 | 1.419 ± 0.173 | 1.32 ± 0.12 | 87.58 ± 9.88 | 133.3 ± 27.68 | 10.09 ± 2.541 | 15.148 ± 3.65 | 2.832 ± 0.492 | 133.3 ± 27.67 | 0.54 ± 0.101 | 1.56 ± 0.3 | 68.72 ± 8.47 | 79.43 ± 17.82 | 8.042 ± 3.472 | AUC(0-t) ([1]; GHI-H (GHI 10 mL/kg, i.v.)): 116.314 ± 56.651 ng·h/mL; AUC(0-∞) ([1]; GHI-H (GHI 10 mL/kg, i.v.)): 122.652 ± 56.297 ng·h/mL; t1/2β ([1]; GHI-H (GHI 10 mL/kg, i.v.)): 23.1 ± 3.18 min; AUC(0-t) ([1]; GHI-L (GHI […], i.v.)): 23.576 ± 12.633 ng·h/mL; AUC(0-∞) ([1]; GHI-L (GHI […], i.v.)): 25.109 ± 12.653 ng·h/mL; V2 ([1]; GHI-L (GHI […], i.v.)): 2.822 ± 0.3 L/kg; t1/2β ([1]; GHI-L (GHI […], i.v.)): 40.4 ± 5.64 min; AUC(0-t) ([1]; GHI-M (GHI 5 mL/kg, i.v.)): 31.49 ± 12.303 ng·h/mL; AUC(0-∞) ([1]; GHI-M (GHI 5 mL/kg, i.v.)): 35.448 ± 11.949 ng·h/mL; K12 ([1]; GHI-M (GHI 5 mL/kg, i.v.)): 9.709 ± 5.342 h⁻¹; K21 ([1]; GHI-M (GHI 5 mL/kg, i.v.)): 3.087 ± 1.742 h⁻¹; Q ([1]; GHI-M (GHI 5 mL/kg, i.v.)): 79.4 ± 17.78 mL/min/kg; V1 ([1]; GHI-M (GHI 5 mL/kg, i.v.)): 0.59 ± 0.22 L/kg; V2 ([1]; GHI-M (GHI 5 mL/kg, i.v.)): 1.87 ± 0.735 L/kg; t1/2α ([1]; GHI-M (GHI 5 mL/kg, i.v.)): 2.7 ± 1.44 min; t1/2β ([1]; GHI-M (GHI 5 mL/kg, i.v.)): 41.5 ± 21.7 min
